Measurements reported in US20230174523A1, “BENZENESULFONAMIDE DERIVATIVES AS TRAP1 MODULATORS AND USES THEREOF” (Amathus Therapeutics, Inc., priority 2020, published 2023).

Target: T1, TRAP1 enzyme (Homo sapiens, UniProt Q12931)
T1 sequence (Q12931 60-704): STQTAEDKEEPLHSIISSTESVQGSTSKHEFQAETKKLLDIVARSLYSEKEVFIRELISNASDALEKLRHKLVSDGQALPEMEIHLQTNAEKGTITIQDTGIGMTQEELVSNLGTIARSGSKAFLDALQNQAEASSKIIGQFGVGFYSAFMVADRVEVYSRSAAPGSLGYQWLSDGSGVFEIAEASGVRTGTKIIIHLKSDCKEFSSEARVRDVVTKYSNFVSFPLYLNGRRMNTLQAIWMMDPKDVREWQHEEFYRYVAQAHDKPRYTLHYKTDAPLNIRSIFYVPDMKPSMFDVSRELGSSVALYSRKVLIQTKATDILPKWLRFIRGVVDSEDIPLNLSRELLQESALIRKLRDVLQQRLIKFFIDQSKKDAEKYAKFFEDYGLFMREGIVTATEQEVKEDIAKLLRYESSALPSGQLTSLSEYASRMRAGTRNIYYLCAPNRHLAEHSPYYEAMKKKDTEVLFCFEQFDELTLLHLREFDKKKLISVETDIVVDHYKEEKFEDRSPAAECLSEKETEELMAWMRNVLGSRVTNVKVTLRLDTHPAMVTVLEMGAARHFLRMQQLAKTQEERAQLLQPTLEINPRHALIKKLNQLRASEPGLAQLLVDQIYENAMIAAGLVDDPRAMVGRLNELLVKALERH
Assay: ADP Glo assay of TRAP1 ATPase activity
Assay type: biochemical
Details: for EC50: TRAP1 ATPase activation, 150 nM Trap1, 20 μM ATP, geometric mean, read-out: ADP GLO DRC: GeoMean EC50; for Emax: read-out: ADP GLO DRC: Mean Emax
Method: Potency of test compounds to modulate the ATPase activity of TRAP1 enzyme was evaluated using ADP Glo assay. The assay is based on quantification of the ADP generated from ATP in the ATPase reaction. The assay is performed in two steps: first, after the ATPase reaction, an equal volume of ADP-Glo™ Reagent is added to terminate the ATPase reaction and deplete the remaining ATP. Second, the Kinase Detection Reagent is added to simultaneously convert ADP to ATP and allow the newly synthesized ATP to be measured using a luciferase/luciferin reaction.
All the assays were carried out in a 384-well Proxiplate. The buffer used was 25 mM Pipes pH-7.5, 40 mM KCl, 0.05 mM MgCl2, 0.025% BSA, 0.316 mM EGTA, 0.003% Empigen, 0.01% Igepal. 150 nM Trap1 enzyme was incubated with various concentrations of the test compound (0.79 μM-100 μM) at 37° C. for 30 mins (except in blank wells). 20 μM ATP was added to each well to start the reaction. The plate was spun for 1 min at 1200 rpm and then incubated at 37° C. for 60 mins. 5 μl of ADP Glo reagent was added to all the wells and spun the plate for 1 min at 1200 rpm and kept it on a shaker at ambient temperature for 60 mins. 10 μl of kinase detection mix was added to all the wells and the plate was read for Luminescence at 495 nm. The amount of ADP released was estimated from ATP/ADP standard curve generated at the same experimental conditions. Emax (Maximal percent activation) and EC50 (concentration for half maximal activation) were estimated by fitting the dose response data to a sigmoidal curve fitting equation using Graphpad Prism software V. 8.

Row | EC50 | Emax | Structure (SMILES)
1 | < 10 µM | 200 to 300% | COc1ccc(NC(=O)c2cnc(-c3ccccc3)[nH]2)cc1S(=O)(=O)Nc1c(C)cccc1C [Compound 408]
2 | 10 to 20 µM | 123 to 159% | O=C(Nc1cccc(S(=O)(=O)Nc2ccc(Cl)cc2)c1)c1ncc(-c2ccccc2)o1 [Compound 438]
3 | < 10 µM | 160 to 199% | COc1ccc(NC(=O)c2cnc(-c3ccccc3)[nH]2)cc1S(=O)(=O)Nc1c(C)cc(Cl)cc1C [Compound 443]
4 | < 10 µM | 160 to 199% | COc1ccc(NC(=O)c2cnc(-c3ccccc3)[nH]2)cc1S(=O)(=O)N(CCCCCCN)c1ccc(Br)cc1 [Compound 454, N-(3-(N-(6-aminohexyl)-N-(4-bromophenyl)sulfamoyl)-4-methoxyphenyl)-2-phenyl-1H-imidazole-5-carboxamide]
5 | < 10 µM | 160 to 199% | COc1ccc(NC(=O)c2cnc(-c3ccccc3)s2)cc1S(=O)(=O)Nc1c(C)cccc1C [Compound 467]
6 | < 10 µM | 160 to 199% | COc1ccc(NC(=O)c2cnc(-c3ccccc3)s2)cc1S(=O)(=O)Nc1ccc(Cl)cc1 [Compound 468]
7 | 10 to 20 µM | 160 to 199% | COc1ccc(NC(=O)c2nnc(-c3ccccc3)[nH]2)cc1S(=O)(=O)Nc1ccc(Cl)cc1 [Compound 586, N-(3-(N-(4-chlorophenyl)sulfamoyl)-4-methoxyphenyl)-5-phenyl-4H-1,2,4-triazole-3-carboxamide]
8 | 10 to 20 µM | 160 to 199% | COc1ccc(NC(=O)c2ocnc2C(C)C)cc1S(=O)(=O)Nc1ccc(Cl)cc1 [Compound 596]
9 | < 10 µM | 160 to 199% | O=C(Nc1ccc(F)c(S(=O)(=O)Nc2ccc(Cl)cc2)c1)c1ccccc1C(=O)c1ccccc1 [Compound 681]
10 | 20 to 100 µM | 200 to 300% | CCCn1cc(C(=O)Nc2ccc(F)c(S(=O)(=O)Nc3ccc(Cl)cc3)c2)cn1 [Compound 683]
11 | 20 to 100 µM | 160 to 199% | Cn1ncc(I)c1C(=O)Nc1ccc(F)c(S(=O)(=O)Nc2ccc(Cl)cc2)c1 [Compound 689]
12 | < 10 µM | 160 to 199% | O=C(Nc1ccc(F)c(S(=O)(=O)Nc2ccc(Cl)cc2)c1)c1cccc(-c2cncnc2)c1 [Compound 690]
13 | 20 to 100 µM | 123 to 159% | Cc1cc(Cl)nc(Cl)c1C(=O)Nc1ccc(F)c(S(=O)(=O)Nc2ccc(Cl)cc2)c1 [Compound 691]
14 | 20 to 100 µM | 123 to 159% | CC(C)(C)OC(=O)c1ccccc1C(=O)Nc1ccc(F)c(S(=O)(=O)Nc2ccc(Cl)cc2)c1 [Compound 694]
15 | 10 to 20 µM | 200 to 300% | CCOc1ncccc1C(=O)Nc1ccc(F)c(S(=O)(=O)Nc2ccc(Cl)cc2)c1 [Compound 704]
16 | 10 to 20 µM | 123 to 159% | O=C(Nc1ccc(F)c(S(=O)(=O)Nc2ccc(Cl)cc2)c1)c1nccnc1C(F)(F)F [Compound 710]
17 | 20 to 100 µM | 123 to 159% | Cc1nc(C(=O)Nc2ccc(F)c(S(=O)(=O)Nc3ccc(Cl)cc3)c2)c(C)s1 [Compound 716]
18 | 10 to 20 µM | 160 to 199% | O=C(Nc1ccc(F)c(S(=O)(=O)Nc2ccc(Cl)cc2)c1)c1scnc1C1CC1 [Compound 724]
19 | 10 to 20 µM | 123 to 159% | Cc1onc(-c2ccccc2Cl)c1C(=O)Nc1ccc(F)c(S(=O)(=O)Nc2ccc(Cl)cc2)c1 [Compound 728]
20 | 10 to 20 µM | 123 to 159% | Cc1nccc(C(F)(F)F)c1C(=O)Nc1ccc(F)c(S(=O)(=O)Nc2ccc(Cl)cc2)c1 [Compound 734]
21 | < 10 µM | 123 to 159% | Cc1nc2cc(C(=O)Nc3ccc(F)c(S(=O)(=O)Nc4ccc(Cl)cc4)c3)ccc2n1-c1ccccc1 [Compound 735]
22 | 20 to 100 µM | 200 to 300% | Cc1cc(C(=O)Nc2ccc(F)c(S(=O)(=O)Nc3ccc(Cl)cc3)c2)c2c(C)noc2n1 [Compound 736]
23 | 10 to 20 µM | 123 to 159% | O=C(Nc1ccc(F)c(S(=O)(=O)Nc2ccc(Cl)cc2)c1)c1cccc2c1OC(F)(F)O2 [Compound 737]
24 | 10 to 20 µM | 123 to 159% | Cc1oc(C)c(C(=O)Nc2ccc(F)c(S(=O)(=O)Nc3ccc(Cl)cc3)c2)c1C [Compound 740]

Row | EC50 | Emax | Structure (SMILES)
25 | 20 to 100 µM | 123 to 159% | O=C(Nc1ccc(F)c(S(=O)(=O)Nc2ccc(Cl)cc2)c1)c1csc(N2CCOCC2)n1 [Compound 745]
26 | 10 to 20 µM | 160 to 199% | Cc1noc(C(C)C)c1C(=O)Nc1ccc(F)c(S(=O)(=O)Nc2ccc(Cl)cc2)c1 [Compound 751]
27 | 10 to 20 µM | 123 to 159% | Cc1ccc(Sc2ncccc2C(=O)Nc2ccc(F)c(S(=O)(=O)Nc3ccc(Cl)cc3)c2)cc1 [Compound 764]
28 | 20 to 100 µM | 123 to 159% | CCOc1ccsc1C(=O)Nc1ccc(F)c(S(=O)(=O)Nc2ccc(Cl)cc2)c1 [Compound 765]
29 | 20 to 100 µM | 160 to 199% | O=C(Nc1ccc(F)c(S(=O)(=O)Nc2ccc(Cl)cc2)c1)c1cnccc1-c1ccccc1 [Compound 770]
30 | 10 to 20 µM | 123 to 159% | O=C(Nc1ccc(F)c(S(=O)(=O)Nc2ccc(Cl)cc2)c1)c1cccc2cnccc12 [Compound 773]
31 | 10 to 20 µM | 123 to 159% | COc1cc(C(=O)Nc2ccc(F)c(S(=O)(=O)Nc3ccc(Cl)cc3)c2)cc(Cl)c1OC [Compound 775]
32 | 10 to 20 µM | 123 to 159% | Cc1cc(C(=O)Nc2ccc(F)c(S(=O)(=O)Nc3ccc(Cl)cc3)c2)n(Cc2ccc(F)cc2)n1 [Compound 776]
33 | 20 to 100 µM | 123 to 159% | O=C(Nc1ccc(F)c(S(=O)(=O)Nc2ccc(Cl)cc2)c1)c1cnccc1C(F)(F)F [Compound 784]
34 | 10 to 20 µM | 160 to 199% | Cc1ncc(Br)cc1C(=O)Nc1ccc(F)c(S(=O)(=O)Nc2ccc(Cl)cc2)c1 [Compound 795]
35 | < 10 µM | 160 to 199% | Cc1cc(C)n(Cc2cccc(C(=O)Nc3ccc(F)c(S(=O)(=O)Nc4ccc(Cl)cc4)c3)c2)n1 [Compound 807]
36 | 10 to 20 µM | 123 to 159% | O=C(Nc1ccc(F)c(S(=O)(=O)Nc2ccc(Cl)cc2)c1)c1cnc(Cl)cc1Cl [Compound 815]
37 | 20 to 100 µM | 160 to 199% | Cn1ncc(C(=O)Nc2ccc(F)c(S(=O)(=O)Nc3ccc(Cl)cc3)c2)c1-n1cccc1 [Compound 817]
38 | 10 to 20 µM | 160 to 199% | CCS(=O)(=O)c1ccc(OC)c(C(=O)Nc2ccc(F)c(S(=O)(=O)Nc3ccc(Cl)cc3)c2)c1 [Compound 822]
39 | 20 to 100 µM | 200 to 300% | Cc1c(Br)cncc1C(=O)Nc1ccc(F)c(S(=O)(=O)Nc2ccc(Cl)cc2)c1 [Compound 826]
40 | 20 to 100 µM | 123 to 159% | N#Cc1ccc(C(=O)Nc2ccc(F)c(S(=O)(=O)Nc3ccc(Cl)cc3)c2)c(C(F)(F)F)n1 [Compound 827]
41 | 20 to 100 µM | 160 to 199% | CCc1noc(CC)c1C(=O)Nc1ccc(F)c(S(=O)(=O)Nc2ccc(Cl)cc2)c1 [Compound 830]
42 | 10 to 20 µM | 123 to 159% | Cc1nc(C(=O)Nc2ccc(F)c(S(=O)(=O)Nc3ccc(Cl)cc3)c2)nn1-c1ccc(F)cc1 [Compound 835]
43 | 20 to 100 µM | 200 to 300% | O=C(c1ccccc1)c1cccnc1C(=O)Nc1ccc(F)c(S(=O)(=O)Nc2ccc(Cl)cc2)c1 [Compound 836]
44 | 10 to 20 µM | 123 to 159% | COc1ccc(-c2noc(C)c2C(=O)Nc2ccc(F)c(S(=O)(=O)Nc3ccc(Cl)cc3)c2)cc1 [Compound 838]
45 | < 10 µM | 160 to 199% | COc1ccc(NC(=O)c2ccc(N3CCCC3)c(F)c2)cc1S(=O)(=O)Nc1c(C)cccc1C [Compound 1004]
46 | < 10 µM | 200 to 300% | COc1ccc(NC(=O)c2csc(C)c2C)cc1S(=O)(=O)Nc1c(C)cccc1C [Compound 1005]
47 | 20 to 100 µM | 123 to 159% | COc1ccc(NC(=O)c2ccc3c(c2)CCN3C)cc1S(=O)(=O)Nc1c(C)cccc1C [Compound 1008]
48 | 20 to 100 µM | 160 to 199% | COc1ccc(NC(=O)c2cc(C)n(C)c2)cc1S(=O)(=O)Nc1c(C)cccc1C [Compound 1009]
